Data as given in patent EP2257297B1, “COMPOUNDS FOR USE IN THE TREATMENT OF ACNE, SEBORRHOEA AND SEBHORROEIC DERMATITIS, OR FOR REDUCING SEBUM SECRETION” (priority 2008, dated 2009).

molecular target: T1, human MC5R (Homo sapiens, UniProt P33032); assay: Human MC5R radioligand binding assay ([125I] NDP-MSH displacement, hMC5R membranes); conditions: not given
T1 construct: purchased Perkin Elmer RBXMC5M400UA
Experimental: After incubation for 10 mins the phosphate buffer containing the iodine was added to NDP-MSH (10 ul at 1 mg/mL) in a separate eppendorf tube. This was incubated for a further 10 mins.
Resuspended membranes were kept on ice until they were added to the wells of the plate.
Assays were performed in 96 well polypropylene plates. […] This was incubated for 1 hr at 37 °C. Non-specific binding was determined with […] NDP-MSH. Plates were filtered using a Tomtec cell harvester with GF/A filters (Wallac) (presoaked in 0.6% polyethylenimine) and washed three times with 1.0 mL ice-cold wash buffer (the above incubation buffer without 1,10-phenanthroline and Complete™ protease inhibitor tablet). The filters were dried in a 37 °C oven, placed in a sample bag and 5 mL Betaplatescint (Wallac) was added. Prepared filters were counted in cassettes in a Microbeta Trilux (Wallac) for 1 min. […] Data analysis was performed using GraphPad Prism 4, employing competition binding with a single site model and a fixed Hill coefficient. The following equation was used: Y = Bottom + (Top-Bottom)/1/10^(X-logEC50), where X = log(concentration) and Y = binding to fit the data.

T1 sequence (P33032 whole entry): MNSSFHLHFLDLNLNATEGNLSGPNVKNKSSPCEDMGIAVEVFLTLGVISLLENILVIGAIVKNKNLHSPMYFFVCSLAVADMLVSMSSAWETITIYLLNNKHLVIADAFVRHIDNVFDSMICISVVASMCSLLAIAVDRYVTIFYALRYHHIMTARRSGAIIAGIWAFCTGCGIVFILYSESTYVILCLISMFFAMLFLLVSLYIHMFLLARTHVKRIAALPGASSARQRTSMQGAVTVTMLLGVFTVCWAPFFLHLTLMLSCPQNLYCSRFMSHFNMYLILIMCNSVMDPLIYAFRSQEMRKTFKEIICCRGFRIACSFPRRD

| IC50 [nM] | SMILES |
| --- | --- |
| < 100 | CCC(CN1CCC(CNC(=O)c2ccc3cc(Cl)ccc3c2)N[C@@H](C2CCN(C(C)C)CC2)C1=O)c1ccccc1 (mixture of isomers) [Compound 564, (S)-6-chloro-N-((3-(1-isopropylpiperidin-4-yl)-2-oxo-1-(2-phenylbutyl)-1,4-diazepan-5-yl)methyl)-2-naphthamide] |
| < 100 | CC[C@H](CN1CC[C@@H](CNC(=O)c2ccc3cc(Cl)ccc3c2)N[C@@H](CC(C)(C)N2CCCCC2)C1=O)c1ccccc1 (racemic) [Compound 499, 6-chloro-N-(((3S,5S)-3-(2-methyl-2-(piperidin-1-yl)propyl)-2-oxo-1-((S)-2-phenylbutyl)-1,4-diazepan-5-yl)methyl)-2-naphthamide] |

same assay, conditions: hMC5R assay as in Example 102; compounds tested as trifluoroacetate or hydrochloride salts, or as free base

| IC50 [nM] | SMILES |
| --- | --- |
| < 1000 | CN1[C@H](CNC(=O)c2ccc3cc(Br)ccc3c2)CCN(CC(c2ccccc2)c2ccccc2)C(=O)[C@@H]1CCCN [Compound 62, N-(((3S,5S)-3-(3-aminopropyl)-1-(2,2-diphenylethyl)-4-methyl-2-oxo-1,4-diazepan-5-yl)methyl)-6-bromo-2-naphthamide] |
| < 10000 | NCCCC[C@@H]1N[C@H](CNC(=O)Cc2ccc3ccccc3c2)CCN(Cc2cccc3ccccc23)C1=O [Compound 118, N-(((3S,5S)-3-(4-aminobutyl)-1-(naphthalen-1-ylmethyl)-2-oxo-1,4-diazepan-5-yl)methyl)-2-(naphthalen-2-yl)acetamide] |
| < 100 | NCCC[C@@H]1N[C@H](CNC(=O)/C=C/c2ccc(F)cc2F)CCN(CC(c2ccccc2)c2ccccc2)C1=O [Compound 233, (E)-N-(((3S,5S)-3-(3-aminopropyl)-1-(2,2-diphenylethyl)-2-oxo-1,4-diazepan-5-yl)methyl)-3-(2,4-difluorophenyl)acrylamide] |
| < 1000 | CCCC[C@@H]1N[C@H](CNC(=O)/C=C/c2ccc(Cl)cc2)CCN(CC(c2ccccc2)c2ccccc2)C1=O [Compound 297, (E)-N-(((3S,5S)-3-butyl-1-(2,2-diphenylethyl)-2-oxo-1,4-diazepan-5-yl)methyl)-3-(4-chlorophenyl)acrylamide] |
| < 100 | COc1c(C(=O)NC[C@@H]2CCN(CC(c3ccccc3)c3ccccc3)C(=O)[C@H](CCCNC(=N)N)N2)ccc2ccccc12 [Compound 156, N-(((3S,5S)-1-(2,2-diphenylethyl)-3-(3-guanidinopropyl)-2-oxo-1,4-diazepan-5-yl)methyl)-1-methoxy-2-naphthamide] |
| < 100 | NCCC[C@@H]1N[C@H](CNC(=O)c2cc(-c3ccc(Cl)cc3)on2)CCN(CC(c2ccccc2)c2ccccc2)C1=O [Compound 240, N-(((3S,5S)-3-(3-aminopropyl)-1-(2,2-diphenylethyl)-2-oxo-1,4-diazepan-5-yl)methyl)-5-(4-chlorophenyl)isoxazole-3-carboxamide] |
| < 10000 | N=C(N)NCCC[C@@H]1N[C@H](CNC(=O)C2CCCCC2)CCN(CC(c2ccccc2)c2ccccc2)C1=O [Compound 139, N-(((3S,5S)-1-(2,2-diphenylethyl)-3-(3-guanidinopropyl)-2-oxo-1,4-diazepan-5-yl)methyl)cyclohexanecarboxamide] |
| < 100 | N=C(N)NCCC[C@@H]1N[C@H](CNC(=O)c2ccc3sccc3c2)CCN(CC(c2ccccc2)c2ccccc2)C1=O [Compound 185, N-(((3S,5S)-1-(2,2-diphenylethyl)-3-(3-guanidinopropyl)-2-oxo-1,4-diazepan-5-yl)methyl)benzo[b]thiophene-5-carboxamide] |
| < 1000 | N=C(N)NCCC[C@@H]1N[C@H](CNC(=O)[C@@H]2COc3ccccc3O2)CCN(CC(c2ccccc2)c2ccccc2)C1=O [Compound 165, (S)-N-(((3S,5S)-1-(2,2-diphenylethyl)-3-(3-guanidinopropyl)-2-oxo-1,4-diazepan-5-yl)methyl)-2,3-dihydrobenzo[b][1,4]dioxine-2-carboxamide] |
| < 100 | NCC[C@@H]1N[C@H](CNC(=O)/C=C/c2ccc(Cl)cc2)CCN(CC(c2ccccc2)c2ccccc2)C1=O [Compound 283, (E)-N-(((3S,5S)-3-(2-aminoethyl)-1-(2,2-diphenylethyl)-2-oxo-1,4-diazepan-5-yl)methyl)-3-(4-chlorophenyl)acrylamide] |
| < 1000 | CCC(CN1CC[C@@H](CNC(=O)c2ccc(Cl)c(Cl)c2)N[C@@H](CCN)C1=O)c1ccccc1 (stereo partly drawn) [Compound 369, N-(((3S,5S)-3-(2-aminoethyl)-2-oxo-1-(2-phenylbutyl)-1,4-diazepan-5-yl)methyl)-3,4-dichlorobenzamide] |
| < 1000 | NC(=O)CC[C@@H]1N[C@H](CNC(=O)/C=C/c2ccc(Cl)cc2)CCN(CC(c2ccccc2)c2ccccc2)C1=O [Compound 298, (E)-N-(((3S,5S)-3-(3-amino-3-oxopropyl)-1-(2,2-diphenylethyl)-2-oxo-1,4-diazepan-5-yl)methyl)-3-(4-chlorophenyl)acrylamide] |
| < 100 | CCC(CN1CCC(CNC(=O)c2ccc3cc(Cl)ccc3c2)N[C@@H](C2CCN(CCC(C)C)CC2)C1=O)c1ccccc1 (stereo partly shown) [Compound 473] |
| < 1000 | N=C(N)NCCC[C@@H]1N[C@H](CNC(=O)CC2CCCCC2)CCN(CC(c2ccccc2)c2ccccc2)C1=O [Compound 147, 2-cyclohexyl-N-(((3S,5S)-1-(2,2-diphenylethyl)-3-(3-guanidinopropyl)-2-oxo-1,4-diazepan-5-yl)methyl)acetamide] |
| < 10000 | N=C(N)NCCC[C@@H]1N[C@H](CNC(=O)C2CCCC2)CCN(CC(c2ccccc2)c2ccccc2)C1=O [Compound 151, N-(((3S,5S)-1-(2,2-diphenylethyl)-3-(3-guanidinopropyl)-2-oxo-1,4-diazepan-5-yl)methyl)cyclopentanecarboxamide] |
| < 1000 | N=C(N)NCCC[C@@H]1N[C@H](CNC(=O)CCc2ccccc2)CCN(CC(c2ccccc2)c2ccccc2)C1=O [Compound 143, N-(((3S,5S)-1-(2,2-diphenylethyl)-3-(3-guanidinopropyl)-2-oxo-1,4-diazepan-5-yl)methyl)-3-phenylpropanamide] |
| < 100 | N=C(N)NCCC[C@@H]1N[C@H](CNC(=O)/C=C/c2c(F)cccc2Cl)CCN(CC(c2ccccc2)c2ccccc2)C1=O [Compound 209, (E)-3-(2-chloro-6-fluorophenyl)-N-(((3S,5S)-1-(2,2-diphenylethyl)-3-(3-guanidinopropyl)-2-oxo-1,4-diazepan-5-yl)methyl)acrylamide] |
| < 1000 | NCC[C@@H]1N[C@H](CNC(=O)c2ccc(Cl)c(Cl)c2)CCN(Cc2cc(Cl)cc(Cl)c2)C1=O [Compound 325, N-(((3S,5S)-3-(2-aminoethyl)-1-(3,5-dichlorobenzyl)-2-oxo-1,4-diazepan-5-yl)methyl)-3,4-dichlorobenzamide] |
| < 100 | Cc1ccccc1/C=C/C(=O)NC[C@@H]1CCN(CC(c2ccccc2)c2ccccc2)C(=O)[C@H](CCCNC(=N)N)N1 [Compound 195, (E)-N-(((3S,5S)-1-(2,2-diphenylethyl)-3-(3-guanidinopropyl)-2-oxo-1,4-diazepan-5-yl)methyl)-3-o-tolylacrylamide] |
| < 1000 | NCCC[C@@H]1N[C@H](CNC(=O)c2cc(-c3ccccc3)n[nH]2)CCN(CC(c2ccccc2)c2ccccc2)C1=O [Compound 256, N-(((3S,5S)-3-(3-aminopropyl)-1-(2,2-diphenylethyl)-2-oxo-1,4-diazepan-5-yl)methyl)-3-phenyl-1H-pyrazole-5-carboxamide] |
| < 1000 | Cc1cc(C)n(-c2ccc(C(=O)NC[C@@H]3CCN(CC(c4ccccc4)c4ccccc4)C(=O)[C@H](CCCN)N3)cc2)n1 [Compound 243, N-(((3S,5S)-3-(3-aminopropyl)-1-(2,2-diphenylethyl)-2-oxo-1,4-diazepan-5-yl)methyl)-4-(3,5-dimethyl-1H-pyrazol-1-yl)benzamide] |
| < 10000 | COc1ccc(C(=O)NC[C@@H]2CCN(CC(c3ccccc3)c3ccccc3)C(=O)[C@H](CCCNC(=N)N)N2)c(OC)c1 [Compound 146, N-(((3S,5S)-1-(2,2-diphenylethyl)-3-(3-guanidinopropyl)-2-oxo-1,4-diazepan-5-yl)methyl)-2,4-dimethoxybenzamide] |
| < 1000 | NCCCC[C@@H]1N[C@H](CNC(=O)c2ccc3ccccc3c2)CCN(Cc2ccc3ccccc3c2)C1=O [Compound 122, N-(((3S,5S)-3-(4-aminobutyl)-1-(naphthalen-2-ylmethyl)-2-oxo-1,4-diazepan-5-yl)methyl)-2-naphthamide] |
| < 10000 | NCCCC[C@@H]1N[C@H](CNC(=O)Cc2cccc3ccccc23)CCN(Cc2ccc3ccccc3c2)C1=O [Compound 125, N-(((3S,5S)-3-(4-aminobutyl)-1-(naphthalen-2-ylmethyl)-2-oxo-1,4-diazepan-5-yl)methyl)-2-(naphthalen-1-yl)acetamide] |
| < 10000 | NCCCC[C@@H]1N[C@H](CNC(=O)Cc2ccc3ccccc3c2)CCN(Cc2ccc3ccccc3c2)C1=O [Compound 123, N-(((3S,5S)-3-(4-aminobutyl)-1-(naphthalen-2-ylmethyl)-2-oxo-1,4-diazepan-5-yl)methyl)-2-(naphthalen-2-yl)acetamide] |
| < 100 | Cc1ccc(C(=O)NC[C@@H]2CCN(CC(c3ccccc3)c3ccccc3)C(=O)[C@H](CCN3CCCCC3)N2)cc1C [Compound 285, N-(((3S,5S)-1-(2,2-diphenylethyl)-2-oxo-3-(2-(piperidin-1-yl)ethyl)-1,4-diazepan-5-yl)methyl)-3,4-dimethylbenzamide] |
